Columns and labels:
[1] = oral administration; cited from earlier work
[2] = target: T1, hTRPA1 expressed in CHO cells (Homo sapiens, UniProt O75762); assay: in vitro activity of hTRPA1 expressed in CHO cells, intracellular calcium measured with a fluorescent dye; type: cell-based; set-up: efficacy on hTRPA1 according to dose-response curve: dose or concentration left out as unconfirmed
T1 construct: expressed in transfected cells; host or cells: CHO cells
Experimental: The in vitro activity of hTRPA1 expressed in CHO cells was measured for 10 μM cinnamaldehyde and 0.3 μM zinc individually, as well as the combination.

[3] = target: TRPM8 (Homo sapiens, UniProt Q7Z2W7); conditions: cited from earlier work
[4] = target: TRPV1 (Homo sapiens, UniProt Q8NER1); conditions: cited from earlier work
[5] = target: TRPA1 (Homo sapiens, UniProt O75762); conditions: read-out: EC50 of TRPA1 activation; cited from earlier work
Chain of TRPA1 (O75762 whole entry, species assumed): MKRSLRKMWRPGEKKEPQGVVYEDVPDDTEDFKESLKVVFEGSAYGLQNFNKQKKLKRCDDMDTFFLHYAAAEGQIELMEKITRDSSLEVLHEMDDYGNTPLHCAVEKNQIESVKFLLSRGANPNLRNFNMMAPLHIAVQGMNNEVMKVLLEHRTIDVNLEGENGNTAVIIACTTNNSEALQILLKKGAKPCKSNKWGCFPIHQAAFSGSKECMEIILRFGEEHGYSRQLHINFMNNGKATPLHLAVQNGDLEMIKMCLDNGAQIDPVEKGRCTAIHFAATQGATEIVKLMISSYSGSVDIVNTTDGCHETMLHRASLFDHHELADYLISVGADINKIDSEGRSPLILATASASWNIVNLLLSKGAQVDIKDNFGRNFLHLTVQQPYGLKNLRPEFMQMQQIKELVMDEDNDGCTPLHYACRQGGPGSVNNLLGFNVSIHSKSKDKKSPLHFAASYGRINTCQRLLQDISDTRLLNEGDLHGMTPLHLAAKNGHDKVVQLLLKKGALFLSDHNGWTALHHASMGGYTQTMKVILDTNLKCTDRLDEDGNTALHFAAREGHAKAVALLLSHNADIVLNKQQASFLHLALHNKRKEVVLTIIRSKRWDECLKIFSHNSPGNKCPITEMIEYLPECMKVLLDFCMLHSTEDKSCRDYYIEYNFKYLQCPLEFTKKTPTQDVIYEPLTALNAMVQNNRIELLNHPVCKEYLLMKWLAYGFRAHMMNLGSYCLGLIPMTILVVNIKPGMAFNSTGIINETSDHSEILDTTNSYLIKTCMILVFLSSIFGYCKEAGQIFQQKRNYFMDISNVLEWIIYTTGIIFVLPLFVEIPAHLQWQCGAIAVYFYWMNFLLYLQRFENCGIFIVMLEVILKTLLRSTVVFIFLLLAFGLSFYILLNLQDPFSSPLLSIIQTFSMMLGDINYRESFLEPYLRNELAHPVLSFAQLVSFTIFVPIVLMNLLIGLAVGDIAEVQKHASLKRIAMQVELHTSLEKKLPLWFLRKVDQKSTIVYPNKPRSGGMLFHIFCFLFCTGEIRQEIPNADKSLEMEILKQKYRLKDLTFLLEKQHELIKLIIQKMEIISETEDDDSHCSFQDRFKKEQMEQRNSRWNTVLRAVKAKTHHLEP

T1 sequence (O75762 whole entry): as the sequence (O75762 whole entry, species assumed) above
Chain of TRPV1 (Q8NER1 whole entry, species assumed): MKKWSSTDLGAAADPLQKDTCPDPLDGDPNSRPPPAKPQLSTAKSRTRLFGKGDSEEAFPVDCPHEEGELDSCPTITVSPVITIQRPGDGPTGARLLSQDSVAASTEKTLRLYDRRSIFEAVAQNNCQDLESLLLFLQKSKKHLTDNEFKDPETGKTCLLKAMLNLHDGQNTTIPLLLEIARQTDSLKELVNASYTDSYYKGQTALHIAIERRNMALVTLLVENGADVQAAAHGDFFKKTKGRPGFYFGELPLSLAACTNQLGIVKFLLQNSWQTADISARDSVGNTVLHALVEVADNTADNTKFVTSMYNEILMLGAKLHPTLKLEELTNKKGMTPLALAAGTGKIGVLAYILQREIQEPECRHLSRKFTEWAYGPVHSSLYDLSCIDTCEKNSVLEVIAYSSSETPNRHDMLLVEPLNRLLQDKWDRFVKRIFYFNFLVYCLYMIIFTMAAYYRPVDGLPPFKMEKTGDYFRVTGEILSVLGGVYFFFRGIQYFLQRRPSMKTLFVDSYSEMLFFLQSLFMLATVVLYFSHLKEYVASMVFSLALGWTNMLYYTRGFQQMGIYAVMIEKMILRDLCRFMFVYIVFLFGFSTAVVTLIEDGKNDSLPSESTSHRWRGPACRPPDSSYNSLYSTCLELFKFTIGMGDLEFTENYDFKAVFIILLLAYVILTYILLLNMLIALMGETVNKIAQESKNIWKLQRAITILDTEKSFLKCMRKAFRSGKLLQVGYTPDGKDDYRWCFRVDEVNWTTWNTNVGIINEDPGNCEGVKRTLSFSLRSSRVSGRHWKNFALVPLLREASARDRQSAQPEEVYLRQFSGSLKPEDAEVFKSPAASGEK
Chain of TRPM8 (Q7Z2W7 whole entry, species assumed): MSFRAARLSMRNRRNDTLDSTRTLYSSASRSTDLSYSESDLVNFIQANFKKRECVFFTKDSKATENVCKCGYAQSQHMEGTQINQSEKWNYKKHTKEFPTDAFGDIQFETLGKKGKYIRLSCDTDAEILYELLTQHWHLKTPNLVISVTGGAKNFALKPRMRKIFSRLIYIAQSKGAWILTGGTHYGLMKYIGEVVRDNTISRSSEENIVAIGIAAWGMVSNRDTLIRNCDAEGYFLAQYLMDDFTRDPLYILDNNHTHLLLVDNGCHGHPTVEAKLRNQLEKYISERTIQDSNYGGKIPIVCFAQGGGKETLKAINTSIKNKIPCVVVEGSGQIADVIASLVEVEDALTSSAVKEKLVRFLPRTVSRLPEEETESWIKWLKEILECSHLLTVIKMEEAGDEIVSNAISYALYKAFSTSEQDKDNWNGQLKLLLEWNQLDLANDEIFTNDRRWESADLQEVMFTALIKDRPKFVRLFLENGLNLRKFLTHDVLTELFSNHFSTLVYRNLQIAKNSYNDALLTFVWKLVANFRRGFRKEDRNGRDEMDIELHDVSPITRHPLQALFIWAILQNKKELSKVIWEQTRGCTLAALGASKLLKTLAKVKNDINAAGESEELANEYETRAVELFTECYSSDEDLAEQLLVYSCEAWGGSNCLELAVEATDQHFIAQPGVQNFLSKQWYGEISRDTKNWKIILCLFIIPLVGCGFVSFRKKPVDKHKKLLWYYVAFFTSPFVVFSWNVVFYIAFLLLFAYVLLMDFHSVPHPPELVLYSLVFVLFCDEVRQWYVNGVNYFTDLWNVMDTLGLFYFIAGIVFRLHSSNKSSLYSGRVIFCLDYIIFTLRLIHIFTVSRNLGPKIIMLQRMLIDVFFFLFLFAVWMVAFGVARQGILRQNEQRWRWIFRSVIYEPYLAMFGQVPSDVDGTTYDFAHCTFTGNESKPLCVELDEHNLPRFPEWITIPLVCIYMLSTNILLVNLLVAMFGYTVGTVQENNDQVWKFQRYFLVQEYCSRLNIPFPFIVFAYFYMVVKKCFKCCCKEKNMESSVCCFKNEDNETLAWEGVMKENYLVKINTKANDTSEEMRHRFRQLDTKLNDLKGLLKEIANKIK

## COc1cc(CNC(=O)CCCC/C=C/C(C)C)ccc1O [capsaicin]
[1]
  promotion of swallow reflex: shown to promote a swallow reflex

## O=CC=Cc1ccccc1 [cinnamaldehyde]
[2]; positive control C+, CHO cells
  efficacy on hTRPA1 according to dose-response curve: maximum efficacy
[3]
  activation of TRPM8: not TRPV1 or TRPM8
[4]
  activation of TRPV1: not TRPV1
[5]
  EC50: ~10 µM

## zinc
[2]; in vitro
  concentration of zinc required for the synergy with cinnamaldehyde on TRPA1: < 1 µM

Source: patent publication US12161666B2, “Composition comprising cinnamaldehyde and zinc to improve swallowing” (SOCIÉTÉ DES PRODUITS NESTLÉ S.A., priority 2014, dated 2024)
